{"source": "BindingDB's records for doi:10.1016/j.bmcl.2020.127353", "about": "(Lanzhou University, 2020)", "assay": "Binding affinity to NK1R (unknown origin) expressed in HEK293 cells assessed as reduction in cell viability incubated for 96 hrs by MTT assay", "note": "pEC50: −log10 of the molar value. Where a SMILES comes first, the peptide text is derived from it. The star is where a group is joined. Stearoyl = CCCCCCCCCCCCCCCCCC(=O)*", "data": [{"smiles": "CCCCCCCCCCCCCCCCCC(=O)N[C@@H](CCCCN)C(=O)N[C@@H](Cc1c[nH]c2ccccc12)C(=O)N[C@@H](CCCCN)C(=O)N[C@@H](CC(C)C)C(=O)N[C@@H](CCC(=O)O)C(=O)N[C@@H](CCCCN)C(=O)N[C@@H](CCCCN)C(=O)N[C@H](C(=O)NCC(=O)N[C@@H](C)C(=O)N[C@H](C(=O)N[C@@H](CC(C)C)C(=O)N[C@H](C(=O)N[C@@H](CS)C(=O)N[C@H](C(=O)N[C@@H](CC(C)C)C(=O)N[C@@H](CCCNC(=N)N)C(=O)N1CCC[C@H]1C(=O)N[C@@H](CCCCN)C(=O)N1CCC[C@H]1C(=O)N[C@@H](CCC(N)=O)C(=O)N[C@@H](CCC(N)=O)C(=O)N[C@@H](Cc1ccccc1)C(=O)N[C@@H](Cc1ccccc1)C(=O)NCC(=O)N[C@@H](CC(C)C)C(=O)N[C@@H](CCSC)C(N)=O)C(C)C)[C@@H](C)CC)C(C)C)[C@@H](C)CC", "note": "(Stearoyl-KWKLEKKIGAVLICVLRPKPQQFFGLM-NH2)", "values": [{"measurement": "pEC50", "value": 5.28}]}]}
